Measurements from patent US5994359A, “Imino oxyphenyl acetic acid derivatives, methods and intermediates for their preparation and use thereof” (BASF Aktiengesellschaft, priority 1995, dated 1999).

system: Aphis fabae; assay: Aphis fabae (blackbean aphid), contact action; format: in vivo; details: infested dwarf beans (Vicia faba), mortality after 24 hours, read-out: limit concentration (lowest concentration still causing 80-100% inhibition or mortality)
Description: (§1) The active ingredients were formulated
(§2) a) as a 0.1% strength solution in acetone or
(§3) b) as a 10% emulsion in a mixture of 70% by weight of cyclohexanol, 20% by weight of Nekanil® LN (Lutensol® AP6, wetting agent having emulsifying and dispersant action based on ethoxylated alkylphenols) and 10% by weight of Emulphor® EL emulsifier based on ethoxylated fatty alcohols)
(§4) and diluted to give the desired concentraton, using acetone in the case of a) and water in the case of b).
(§5) After the experiments had been concluded, in each case the lowest concentration at which the compounds still caused an 80-100% inhibition or mortality in comparison with untreated controls was determined (limit or minimum concentration).
Severely infested dwarf beans (Vicia faba) were treated with the aqueous preparation of active ingredient. After 24 hours, the mortality rate was determined.

For CCON=C(C)C(C)=NOc1ccccc1C(=NOC)C(=O)OC [I(2).9], which minimal effective concentration is on record?
The minimal effective concentration was 200 µg/mL.

system: Heliothis virescens; assay: Heliothis virescens (tobacco budworm), contact/stomach action; format: in vivo; details: tobacco plants, 3rd instar larvae, mortality and antifeeding effect after 48 hours, read-out: limit concentration (lowest concentration still causing 80-100% inhibition or mortality)
Description: as §1, §2, §3, §4, §5
Tobacco plants approximately 10 cm high were treated with the aqueous preparation of active ingredient. After the plants had dried, they were populated with in each case 10 3rd instar larvae. Mortality and antifeeding effect were assessed after 48 hours.

Which minimal effective concentration does the source give for C#CCON=C(C)C(C)=NOc1ccccc1C(=COC)C(=O)OC [I(2).17] here?
The minimal effective concentration was 40 µg/mL.

system: Tetranychus telarius; assay: Tetranychus telarius (greenhouse red spider mite), contact action; format: in vivo; details: 120 h, infested dwarf beans in pots, assessed after 5 days in the greenhouse, read-out: limit concentration (lowest concentration still causing 80-100% inhibition or mortality)
Description: as §1, §2, §3, §4, §5
After 5 days in the greenhouse, the result of the control measures was determined by means of a stereomicroscope.

For CCC(=NOC)C(C)=NOc1ccccc1C(=COC)C(=O)OC [I(2).20], which minimal effective concentration is on record?
Its minimal effective concentration is no more than 200 µg/mL.

For C#CCON=C(C)C(C)=NOc1ccccc1C(=COC)C(=O)OC [I(2).17], which minimal effective concentration is on record?
Its minimal effective concentration is no more than 200 µg/mL.

Which minimal effective concentration does the source give for CCON=C(C)C(C)=NOc1ccccc1C(=COC)C(=O)OC [I(2).15] here?
The minimal effective concentration was no more than 200 µg/mL.

Which minimal effective concentration does the source give for CCC(=NOc1ccccc1C(=COC)C(=O)OC)C(C)=NOC [I(2).14] here?
Its minimal effective concentration is no more than 200 µg/mL.

With CON=C(C)C(C)=NOc1ccccc1C(=NOC)C(=O)OC [I(2).2, methyl methoxyimino-[2-(2-methoxyimino-1-methylpropylideneaminooxy)phenyl]acetate] as the compound, how does the minimal effective concentration read?
The minimal effective concentration was no more than 200 µg/mL.

C#CCON=C(C)C(C)=NOc1ccccc1C(=NOC)C(=O)OC [I(2).16] was tested. Which minimal effective concentration did it give?
The minimal effective concentration was no more than 200 µg/mL.

For CCC(=NOC)C(C)=NOc1ccccc1C(=NOC)C(=O)OC [I(2).21], which minimal effective concentration is on record?
The minimal effective concentration was no more than 200 µg/mL.

How did the minimal effective concentration turn out when CNC(=O)C(=NOC)c1ccccc1ON=C(C)C(C)=NOC(C)C [I(2).8] was run?
The minimal effective concentration was no more than 200 µg/mL.

CCON=C(C)C(C)=NOc1ccccc1C(=NOC)C(=O)OC [I(2).9] was tested. Which minimal effective concentration did it give?
The minimal effective concentration was no more than 200 µg/mL.

COC=C(C(=O)OC)c1ccccc1ON=C(C)C(C)=NOC [I(2).7, methyl 3-methoxy-[2-(2-methoxyimino-1-methyl-propylideneaminooxy)phenyl]acrylate] was tested. Which minimal effective concentration did it give?
The minimal effective concentration was no more than 200 µg/mL.

For COC=C(C(=O)OC)c1ccccc1ON=C(C)C(C)=NOC(C)C [I(2).6], which minimal effective concentration is on record?
Its minimal effective concentration is no more than 200 µg/mL.

Which minimal effective concentration does the source give for CON=C(C(=O)OC)c1ccccc1ON=C(C)C(C)=NOC(C)C [I(2).13] here?
Its minimal effective concentration is no more than 200 µg/mL.

Which minimal effective concentration does the source give for CCC(=NOC)C(C)=NOc1ccccc1C(=NOC)C(=O)NC [I(2).19] here?
Its minimal effective concentration is no more than 200 µg/mL.

system: mitochondria of the yeast Saccharomyces cerevisiae; assay: Inhibition of mitochondrial respiration (photometric cytochrome c reduction rate in isolated mitochondria); format: biochemical; details: Saccharom. cerevisiae mitochondria; relative to reference substance enol ether stilbene
Description: To determine the effect of the compounds according to the invention on mitochondrial respiration, it is first necessary to isolate the mitochondria from the test organisms. In the case of the yeast Saccharomyces cerevisiae, a 30 to 40% cell suspension of the fungus is disrupted, to this end, in an aqueous solution of 0.6 M Mannitol+0.01 M tris[hydroxymethyl]aminomethane+0.002 M disodium ethylenediaminetetraacetate (pH 6.8) using a glass bead mill, and the extract is fractionated by means of differential centrifugation at 1000×g and 12000×g. The mitochondria are in the precipitate of the 12000×g centrifugation.
The effect of the compounds on the respiration chain is determined by adding a solution of the test compound in dimethyl sulfoxide to a suspension of mitochondria in an aqueous solution of 0.01 M tris[hydroxymethyl]aminomethane+0.65 M sorbitol+0.01 M KH2 PO4 +0.01 M KCl+0.0004 M disodium ethylenediamine-tetraacetate+0.3% bovine serum albumin+0.0007 M KCN+6×10^-6 ubiquinone-50+0.01 M sodium succinate+0.15% cytochrome c (pH 7.5), and the reduction rate of the cytochrome c is determined photometrically on the basis of the increased absorption at 546 nm. A batch with a corresponding amount of pure DMSO is used as control. The inhibitory value for the active ingredient at the concentration shown in each case is then calculated as follows. [formula] where ΔE is the difference in absorption, At the difference in time, [formula]
In the table which follows, the action of a series of compounds according to the invention as respiration inhibitors on the mitochondria of the yeast Saccharomyces cerevisiae, the phyto-pathogenic fungus Drechslera sorokiniana and the common housefly Musca domestics.
In each case, the inhibition of mytochondrial respiration is given as I50 value (this being the concentration of test substance where a 50% inhibition is observed) and as F value, this being a relative value defined as follows: [formula]
The reference substance is the so-called enol ether stilbene, of the following formula: [drawing 80]

How did the “F value (relative value)” value turn out when CON=C(C)C(C)=NOc1ccccc1C(=NOC)C(=O)OC [I(2).2, methyl methoxyimino-[2-(2-methoxyimino-1-methylpropylideneaminooxy)phenyl]acetate] was run?
Its value is 0.43.

For CON=C(C(=O)OC)c1ccccc1ON=C(C)c1cccc(C)c1 [I(1).1, methyl methoxyimino-[2-(1-meta-tolylethylideneaminooxy)phenyl]acetate], which “F value (relative value)” value is on record?
Its value is 0.96.

How did the “F value (relative value)” value turn out when CNC(=O)C(=NOC)c1ccccc1ON=C(C)C(C)=NOC [I(2).3, N-methyl-methoxyimino-[2-(2-methoxyimino-1-methylpropylideneaminooxy)phenyl]acetamide] was run?
The value was 9.6.

How did the “F value (relative value)” value turn out when CNC(=O)C(=NOC)c1ccccc1ON=C(C)c1cccc(C)c1 [I(1).2, 2-methoxyimino-N-methyl-2-[2-(1-meta-tolylethylideneamino-oxy)phenyl]acetamide] was run?
The value was 11.
